Key:
chronic psoriasis = assay: Multi-center, double blind study of ointments in mild to moderate chronic psoriasis; type: in vivo, patients; settings: for percentage of patients healed or showing marked improvement (treatment effective): ointment twice a day for one month, 1% resveratrol, calcipotriol 50 mg/g, or both, 12 patients per group, control 10%
Source text: A prospectic, multi-center, double bind study was effected on patients of both sexes, of age above 18 years, with a clinical diagnosis of mild to moderate chronic psoriasis, with affected areas of at least 100 cm^2, but not above 40% of the total body area. Patients with pustular psoriasis or with psoriasis guttata, those who had received either topical treatment for two weeks before the test or systemic treatment in the 8 weeks before the test, as well as pregnant and nursing women or patients receiving more than 400 IU of vitamin D daily or any other medicament potentially affecting the progress of the disease, were excluded.
Out of 48 patients, 12 were included in the resveratrol-treated group (1% resveratrol ointment), 12 in the control group (ointment with no resveratrol), 12 in a group treated with a Vitamin D derivative (calcipotriol 50 mg/g) and 12 in a group treated with the combination resveratrol/Vitamin D derivative (1% resveratrol/50 mg/g calcipotriol). […] Patients were treated twice a day for one month with the different ointments.
At the end of the treatment, the clinical response was evaluated as “healed”, “marked improvement”, “slight improvement”, “no changes”, “worsening”. Quality life evaluations were carried out before and after the treatment, by using the “psoriasis Disability Index” (PDI) and the “Sickness Impact Profile” (SIP). The PDI questionnaire included 15 questions as follows: daily activities (5 questions), work or school, if applicable, (3 questions), personal relationships, (2 questions), spare time (4 questions), treatment, (1 question). […] The purpose of said questions was to evaluate symptoms and feelings of the patients concerning their psoriasis during the first 4 weeks of treatment.

[1] = system: neutrophils, circulating cells, cells at the lesion site; assay: General observations during and after topical treatment with resveratrol; type: in vivo
[2] = system: severe disabling exfoliative eczema; assay: Clinical study of 1% resveratrol ointment in exfoliative eczema (six-area/six-sign score); type: in vivo, patients
Experimental: Experiments were carried out on patients (n=20) of both sexes, of age above 18 years, suffering from severe disabling exfoliative eczema unresponsive to the current topical treatments.
All patients were subjected to complete blood count and measurements of renal and hepatic functions prior to treatment. Patients who had been systemically treated two months previously with corticoids, antibiotics, psoralenes and other immunosuppressants or with UV were excluded. Patients were supposed not to use any corticoid topically.
Out of 20 patients, 10 were included in the resveratrol-treated group (1% resveratrol ointment) and 10 in the control group (ointment with no resveratrol). […] Patients were divided in two groups and treated twice a day for six months either with the resveratrol-containing ointment or with the placebo ointment (control group).
The progress of the disease was monitored by using the “six-area/six-sign score” method. The severity of the six signs used for monitoring the disease (erythema, pustules, excoriations, dehydration, scaling of the skin and lichenification), was evaluated on a 0-3 score (none, mean, moderate and severe), in each of the six body areas tested (head, neck, hands, elbows, feet, legs and trunk). The severity of itching and of sleep disorders was evaluated on a 0-3 score (none, mean, moderate and severe).

acne vulgaris = assay: Randomized, double blind study of topical resveratrol (1% cream) in acne vulgaris; type: in vivo, patients; settings: 1% cream daily for 10 weeks
Experimental: A randomized, double blind study was carried out in order to evaluate the effectiveness of topical administration of resveratrol in the treatment of acne vulgaris. Patients (n=30) of 15 to 19 years were all suffering from II or III degree acne (according to Pillsbury's classification), with multiple inflammatory lesions (20 to 62) and a number of comedos (28 to 120) on face and forehead. Only subjects who had received no systemic treatment with antibiotics for at least 4 weeks and had used no topical medicaments for 2 weeks before treatment were selected. During treatment with resveratrol, no further topical treatment was allowed. The effectiveness of the therapy was evaluated by comparing the conditions of the lesions before and after the treatment, according to an arbitrary score of 0 to 5 (0=worsening; 1=no changes; 2=slight improvement; 3=modest improvement; 4=good improvement; 5=excellent improvement).
Treatment consisted of daily topical administrations of resveratrol (1% cream) or of the carrier only, for 10 weeks in 30 patients suffering from acne vulgaris. The evaluated parameters were: number of acne lesions and comedos, erythema, seborrhoic skin and skin scaling.

[3] = end of six months treatment, 10 treated patients

systemic or topical effects during and after the treatment ([1]; topical use) | Structure (SMILES) | percentage of patients healed or showing marked improvement (treatment effective) (chronic psoriasis) [%] | neutrophils activity, circulating cells, cells at the lesion site ([1]; after topical treatment) | mean of the values concerning the different clinical symptoms (six-area/six-sign score) ([2]; 1% resveratrol ointment twice a day, after the first two weeks of treatment, baseline 57.0 (SEM 1.6, n=10)) | body area affected by eczema ([2]; during treatment, baseline 69% on the average) [%] | number of treated patients showing improvements only concerning skin scaling [2, 3] | number of treated patients with significant improvements of all the considered parameters [2, 3] [patients] | mean score for itching (0-3) ([2]; end of the treatment, baseline 2.3) | mean score for sleep disorders (0-3) ([2]; end of the treatment, baseline 2.9) | reduction in the total PDI score (chronic psoriasis; after treatment, 95% CI 4.4, 8.6, P=0.001, control group 1.7) | cases in which effectiveness was due to the reduction of follicle hyperkeratosis (acne vulgaris) [%] | side effects (acne vulgaris) | treated subjects with significant reduction of erythema, number of acne lesions, comedos and scaling (acne vulgaris; control subjects 2%) [%]
– | C=C1/C(=C\C=C2/CCC[C@]3(C)[C@@H]([C@H](C)/C=C/[C@@H](O)C4CC4)CC[C@@H]23)C[C@@H](O)C[C@@H]1O [Vitamin D derivatives, calcipotriol, reference compound] | 47 | – | – | – | – | – | – | – | – | – | – | –
neither systemic nor topical effects | Oc1ccc(/C=C/c2cc(O)cc(O)c2)cc1 [resveratrol, 3,4′,5-trihydroxy-trans-stilbene] | 80 | no changes of neutrophils activity | 21.5 | 27 | two | 8 | 0.6 | 1.0 | 6.5 | 95 | neither systemic nor topical side effects | 96
